The results in this text go back to patent publication US20220348590A1, “CYCLOOXYGENASE-2 INHIBITORS AND USES THEREOF” (The Board Institute, Inc., priority 2019, published 2022).

SMILES strings stand for the structures. Where two headings read alike, the source gives them in different places.

The target in the assay is T1, human recombinant COX2 (hCOX2) (UniProt P35354).
T1 sequence (P35354 1-604): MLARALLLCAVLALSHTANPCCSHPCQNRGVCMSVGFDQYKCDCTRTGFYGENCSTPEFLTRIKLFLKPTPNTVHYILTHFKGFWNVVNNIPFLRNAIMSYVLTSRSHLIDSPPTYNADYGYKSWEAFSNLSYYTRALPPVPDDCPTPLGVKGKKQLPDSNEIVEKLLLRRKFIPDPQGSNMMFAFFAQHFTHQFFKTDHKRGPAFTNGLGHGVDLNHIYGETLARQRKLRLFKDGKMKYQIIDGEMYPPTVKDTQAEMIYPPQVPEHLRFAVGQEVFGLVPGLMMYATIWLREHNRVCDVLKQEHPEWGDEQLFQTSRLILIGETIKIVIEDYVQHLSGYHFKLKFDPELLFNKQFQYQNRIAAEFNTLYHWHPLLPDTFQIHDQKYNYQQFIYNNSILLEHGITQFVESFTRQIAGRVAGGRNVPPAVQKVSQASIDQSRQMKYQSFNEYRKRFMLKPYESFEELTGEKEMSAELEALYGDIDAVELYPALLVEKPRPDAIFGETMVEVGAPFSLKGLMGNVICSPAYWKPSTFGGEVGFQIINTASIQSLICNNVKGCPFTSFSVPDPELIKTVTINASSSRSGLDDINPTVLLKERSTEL
Kind of assay: LCMS-based COX2 enzymatic inhibition assay (PGE2 quantification). Type of assay: biochemical. Also on record: COX2 2 minutes pge2/pge2d4 area ratio Avg; other: 2 minutes; readout pge2/pge2d4 area ratio; average; COX2 2 minutes pge2/pge2d4 area ratio Avg; LLE; average LLE; COX2 2 minutes pge2 area (counts) Avg; readout pge2 area (counts); other: 2 min; "ovine COX2 (oCOX2), human recombinant COX2 (hCOX2)". The conditions noted are these: 2 minutes; for COX2 2 minutes pge2/pge2d4 area ratio Avg. LLE / COX2 2 minutes pge2 area (counts) Avg. LLE: average LLE; for IC50: average. The method, then: We have adapted a previously reported cyclooxygenase enzymatic assay utilizing LCMS quantification of PGE2 as the product of COX-1 and COX2 catalyzed conversion of arachidonic acid to evaluate the binding properties of newly synthesized ligands [Cao, 2011]. These optimized and miniaturized (384-well plates) LCMS-based COX-1 and COX2 enzymatic assays enabled us to quickly evaluate newly synthesized ligands for COX2 binding affinity and selectivity vs COX-1. Using a shorter ligand-enzyme incubation time in the LCMS assay (2 minutes vs 10 minutes) also permitted us to prioritize ligands with faster binding kinetics. Considering the relatively slow on-rate kinetics of known coxibs, due to their 3-step binding mechanism [Marnett, 2009], we believe that optimizing this critical parameter will be key to the successful development of a COX2 PET tracer. Using these enzymatic assays, we have evaluated>200 newly synthesized ligands against COX2 and >20 ligands against COX-1. Another critical property necessary for a good PET radiotracer is to have low non-specific binding (NSB) to increase the free fraction and maximize the signal to noise ratio. This property can be evaluated using in-vitro protein binding assays, and we have now evaluated>50 newly synthesized ligands in mouse, rat and human plasma protein binding (PPB) assays as well as >15 ligands in a mouse brain protein binding (BPB) assay.
Ovine COX-1 (oCOX-1), ovine COX2 (oCOX2), human recombinant COX2 (hCOX2), arachidonic acid, PGE2, d4-PGD2, and […] (labeled with deuterium atoms at positions 3 and 4) were purchased from Cayman Chemicals (Ann Arbor, Mich.). The cofactors (−)epinephrine and hematin, and the COX inhibitors indomethacin, resveratrol and diclofenac were purchased from Sigma-Aldrich (St. Louis, Mo.). Celecoxib was purchased from 3B PharmaChem International (Wuhan, China). All organic solvents were HPLC grade or better and were purchased from Thermo Fisher (Hanover Park, Ill.). Formic acid was purchased from EMD Chemicals (San Diego, Calif.). Purified water was prepared by using a Millipore Milli-Q purification system (Millipore, Billerica, Mass.). All other chemicals and solvents were ACS reagent grade, unless stated otherwise.
In an Eppendorf tube, 146 μL of 100 mM Tris.HCl (pH 8.0) buffer, 2 μL of 100 μM hematin (co-factor) and 10 μL of 40 mM L-epinephrine (co-factor) were mixed at room temperature. Next, 20 μL of Tris.HCl (pH 8.0) buffer containing 0.2 μg COX2 or 0.1 μg COX-1 (approximately 1 unit of enzyme; 1 unit COX utilizes 1 nmol 02/mg/min at 37° C.) was added, and the solution was incubated at room temperature for 2 min. A 2 μL aliquot of the COX inhibitor in DMSO was added to the enzyme solution and preincubated at 37° C. for 10 min. Negative controls were identical except that 2 μL aliquots of DMSO without inhibitor were used instead.
Each COX reaction was initiated by adding 20 μL of arachidonic acid in Tris.HCl (pH 8.0) buffer to give a final concentration of 5 μM; and the reaction was terminated after 2 min by adding 20 μL of 2.0 M HCl. The surrogate standards d4-PGE2 and d4-PGD2 (10 μL aliquot of 50 ng/mL solution in methanol) were added to correct for errors or degradation during sample handling and for variation in injection volume or instrument response during LC-MS-MS. After 30 min, PGE2, PGD2 and their surrogate standards were extracted from each incubation mixture using 800 μL hexane/ethyl acetate (50:50, v/v). The organic phase was removed, evaporated to dryness, and reconstituted in 100 μL methanol/water (50:50, v/v) for analysis using LC-MS-MS.
The concentration of PGE2 in each sample was measured using LC-MS-MS, and the percent of COX inhibition by each test solution was determined by comparing the amount of PGE2 produced in the experiment with that produced in the negative control incubation. The formation of PGD2 was measured for quality control purposes, since the levels of PGD2 should be proportional to those of PGE2. […]

Setting [1] is: readout pge2/pge2d4 area ratio, read-out: COX2 2 minutes pge2/pge2d4 area ratio Avg. IC50.
[2] abbreviates: readout pge2 area (counts), read-out: COX2 2 minutes pge2 area (counts) Avg. IC50.

As to `CS(=O)(=O)c1ccc(-c2cncc(OCc3ccc(Cl)s3)n2)cc1` [Compound 4], the “COX2 2 minutes pge2/pge2d4 area ratio Avg. LLE” value (readout pge2/pge2d4 area ratio) is reported as 4.855. For the same compound, the IC50 by setting is: under setting [1], 6 nM; under setting [2], 14.1 nM. Also, the “COX2 2 minutes pge2 area (counts) Avg. LLE” value (“COX2 2 minutes pge2 area” for short) (readout pge2 area (counts)) was 4.615.

For `COc1ncc(OCc2ccoc2)nc1-c1ccc(S(C)(=O)=O)cc1` [Compound 22], for the setting “readout pge2/pge2d4 area ratio”, the “COX2 2 minutes pge2/pge2d4 area ratio Avg. LLE” value came to 5.719. The IC50 is, setting by setting: under setting [1], 11.2 nM; under setting [2], 11.2 nM. For the same compound, the “COX2 2 minutes pge2 area” value (readout pge2 area (counts)) came out at 5.729.

On to `Cc1cocc1CNc1cccc(-c2ccc(S(C)(=O)=O)cc2)n1` [Compound 40], for which, where the note is “readout pge2/pge2d4 area ratio”, the “COX2 2 minutes pge2/pge2d4 area ratio Avg. LLE” value turned out to be 4.502. The IC50 runs as follows: under setting [1], 18.8 nM; under setting [2], 20.7 nM. Also, the “COX2 2 minutes pge2 area” value (readout pge2 area (counts)) is given as 4.487.

For `CS(=O)(=O)c1ccc(-c2coc3ccc(NCc4ccoc4)nc23)cc1` [Compound 55], the IC50 reads like this: under setting [1], 30.5 nM; under setting [2], 26.5 nM.

For the compound `CS(=O)(=O)c1ccc(-n2ccc3ccc(Cc4cccs4)nc32)cc1` [Compound 56], the IC50 came out at 30.5 nM under setting [1] and 32.9 nM under setting [2].

Turning to `COc1ncc(NCc2sccc2C)nc1-c1ccc(S(C)(=O)=O)cc1` [Compound 62], the “COX2 2 minutes pge2/pge2d4 area ratio Avg. LLE” value (readout pge2/pge2d4 area ratio) is on record as 4.781. The IC50 runs as follows: under setting [1], 34.5 nM; under setting [2], 40.5 nM. Further, the “COX2 2 minutes pge2 area” value (readout pge2 area (counts)) amounted to 4.654.

Consider `CS(=O)(=O)c1ccc(-c2coc3ccc(NCc4ccco4)nc23)cc1` [Compound 68], for which the IC50 worked out at 40.2 nM under setting [1] and 41 nM under setting [2].

With `CS(=O)(=O)c1ccc(-c2cccc(OCc3ccc(Cl)s3)n2)cc1` [Compound 69], the “COX2 2 minutes pge2/pge2d4 area ratio Avg. LLE” value (readout pge2/pge2d4 area ratio) stood at 2.722. Further, the IC50 came out at 40.6 nM under setting [1] and 28.8 nM under setting [2]. In addition, the “COX2 2 minutes pge2 area” value (readout pge2 area (counts)) worked out at 2.834.

As to `CS(=O)(=O)c1ccc(-c2cccc(Oc3ccccc3)n2)cc1` [Compound 70], the IC50 by setting is: under setting [1], 40.6 nM; under setting [2], 46.5 nM.

Take `CC(C)Oc1ncc(NCc2cccs2)nc1-c1ccc(S(C)(=O)=O)cc1` [Compound 75]: the “COX2 2 minutes pge2/pge2d4 area ratio Avg. LLE” value (readout pge2/pge2d4 area ratio) is reported as 3.984. Also, the IC50 under setting [1] came out at 45.4 nM and the IC50 under setting [2] amounted to 62.3 nM. Further, the “COX2 2 minutes pge2 area” value (readout pge2 area (counts)) worked out at 3.887.

`CS(=O)(=O)c1ccc(-c2cncc(NCc3cccs3)c2)cc1` [Compound 79]: for the setting “readout pge2/pge2d4 area ratio”, the “COX2 2 minutes pge2/pge2d4 area ratio Avg. LLE” value came out at 4.192. Moreover, the IC50 by setting is: under setting [1], 50.6 nM; under setting [2], 59.6 nM. Further, the “COX2 2 minutes pge2 area” value (readout pge2 area (counts)) turned out to be 4.109.

As to `COc1ncc(OCc2ccco2)nc1-c1ccc(S(C)(=O)=O)cc1` [Compound 81], for the setting “readout pge2/pge2d4 area ratio”, the “COX2 2 minutes pge2/pge2d4 area ratio Avg. LLE” value turned out to be 5.231. Moreover, the IC50 turned out to be 55.9 nM under setting [1] and 41 nM under setting [2]. Under “readout pge2 area (counts)”, the “COX2 2 minutes pge2 area” value is 5.428.

`CS(=O)(=O)c1ccc(-c2cnc(N)c(OCc3cccs3)n2)cc1` [Compound 86]: the “COX2 2 minutes pge2/pge2d4 area ratio Avg. LLE” value (readout pge2/pge2d4 area ratio) was determined as 5.134. The IC50 is, setting by setting: under setting [1], 61 nM; under setting [2], 68.2 nM. The “COX2 2 minutes pge2 area” value (readout pge2 area (counts)) is reported as 5.087.

Regarding `CS(=O)(=O)c1ccc(-c2nc(NCc3cccs3)cnc2N)cc1` [Compound 90], the “COX2 2 minutes pge2/pge2d4 area ratio Avg. LLE” value (readout pge2/pge2d4 area ratio) amounted to 5.442. The IC50 under setting [1] stood at 67.1 nM and the IC50 under setting [2] came to 942 nM. In addition, the “COX2 2 minutes pge2 area” value (readout pge2 area (counts)) is 4.51.

`CS(=O)(=O)c1ccc(-n2ncc3ccc(NCc4cccs4)nc32)cc1` [Compound 92]: the IC50 was 68.6 nM under setting [1] and 58.4 nM under setting [2].

`CS(=O)(=O)c1ccc(-c2cccc(OCc3ccc(F)cc3)n2)cc1` [Compound 95]: for the setting “readout pge2/pge2d4 area ratio”, the “COX2 2 minutes pge2/pge2d4 area ratio Avg. LLE” value worked out at 3.43. The IC50 was found to be 71.1 nM under setting [1] and 91 nM under setting [2]. Further, the “COX2 2 minutes pge2 area” value (readout pge2 area (counts)) is reported as 3.477.

`CS(=O)(=O)c1ccc(-c2cnc(F)c(NCc3cccs3)n2)cc1` [Compound 97]: the “COX2 2 minutes pge2/pge2d4 area ratio Avg. LLE” value (readout pge2/pge2d4 area ratio) was 4.517. For the same compound, the IC50 by setting is: under setting [1], 75.7 nM; under setting [2], 58.1 nM. For the setting “readout pge2 area (counts)”, the “COX2 2 minutes pge2 area” value is 4.626.

As to `COCc1ccc(NCc2cccs2)nc1-c1ccc(S(C)(=O)=O)cc1` [Compound 100], the “COX2 2 minutes pge2/pge2d4 area ratio Avg. LLE” value (readout pge2/pge2d4 area ratio) worked out at 3.645. In addition, the IC50 was 83.9 nM under setting [1] and 106 nM under setting [2]. For the same compound, the “COX2 2 minutes pge2 area” value (readout pge2 area (counts)) was found to be 3.594.

As to `CS(=O)(=O)c1ccc(-c2nc(OCc3cccs3)ccc2F)cc1` [Compound 101], the “COX2 2 minutes pge2/pge2d4 area ratio Avg. LLE” value (readout pge2/pge2d4 area ratio) is reported as 3.357. Moreover, the IC50 was found to be 86.7 nM under setting [1] and 77.2 nM under setting [2]. In addition, the “COX2 2 minutes pge2 area” value (readout pge2 area (counts)) turned out to be 3.332.

Turning to `COc1ncc(NCc2ccns2)nc1-c1ccc(S(C)(=O)=O)cc1` [Compound 102], where the note is “readout pge2/pge2d4 area ratio”, the “COX2 2 minutes pge2/pge2d4 area ratio Avg. LLE” value is 5.647. Also, the IC50 is, setting by setting: under setting [1], 87.5 nM; under setting [2], 103 nM. Besides, the “COX2 2 minutes pge2 area” value (readout pge2 area (counts)) amounted to 5.572.

On to `Cc1ncc(NCc2cccs2)nc1-c1ccc(S(C)(=O)=O)cc1` [Compound 103], for which the “COX2 2 minutes pge2/pge2d4 area ratio Avg. LLE” value (readout pge2/pge2d4 area ratio) is recorded as 4.751. Besides, the IC50 reads like this: under setting [1], 88.8 nM; under setting [2], 73.3 nM. The “COX2 2 minutes pge2 area” value (readout pge2 area (counts)) came out at 4.838.

Consider `CS(=O)(=O)c1ccc(-c2cncc(NCc3ccsc3)n2)cc1` [Compound 104], for which the “COX2 2 minutes pge2/pge2d4 area ratio Avg. LLE” value (readout pge2/pge2d4 area ratio) turned out to be 4.901. Also, the IC50 under setting [1] was 91.1 nM and the IC50 under setting [2] was determined as 74.1 nM. Also, the “COX2 2 minutes pge2 area” value (readout pge2 area (counts)) is 4.97.

In the case of `CS(=O)(=O)c1ccc(-c2cccc(NCc3nccs3)n2)cc1` [Compound 105], the “COX2 2 minutes pge2/pge2d4 area ratio Avg. LLE” value (readout pge2/pge2d4 area ratio) amounted to 3.99. Moreover, the IC50 under setting [1] stood at 91.5 nM and the IC50 under setting [2] was 105 nM. Further, the “COX2 2 minutes pge2 area” value (readout pge2 area (counts)) is 3.918.
